“And” between values parts separate entries of the source, which are not always exact repeats. Equal values may be shown once. [OPent] = 2'-O-pentyl ribonucleoside; [OPr] = 2'-O-propyl ribonucleoside; d = 2'-deoxy (DNA); m = 2'-O-methyl
How the values were obtained:
[1] = system: 25mer oligoribonucleotide complement; assay: Melting curves with 25mer oligoribonucleotide complement; assay type: binding; details: 17mer hybridized with 25mer oligoribonucleotide complement
Text: Other sugar modifications: The effects of other 2′ sugar modifications besides 2′-O-methyl on antisense activity in chimeric oligonucleotides have been examined. These modifications are listed in Table 4, along with the Tm values obtained when 17mer oligonucleotides having 2′-modified nucleotides flanking a 7-base deoxy gap were hybridized with a 25mer oligoribonucleotide complement as described in Example 25. […] As alkyl length increased, Tm decreased.
Absorbance vs. temperature curves were measured at 260 nm using a Gilford 260 spectrophotometer interfaced to an IBM PC computer and a Gilford Response II spectrophotometer. The buffer contained 100 mM Na^+, 10 mM phosphate and 0.1 mM EDTA, pH 7. Oligonucleotide concentration was 4 μM each strand determined from the absorbance at 85° C. and extinction coefficients calculated according to Puglisi and Tinoco [Methods in Enzymol., 180, 304 (1989). Tm values, free energies of duplex formation and association constants were obtained from fits of data to a two state model with linear sloping baselines. [Petersheim and Turner, Biochemistry, 22, 256 (1983). Reported parameters are averages of at least three experiments. For some oligonucleotides, free energies of duplex formation were also obtained from plots of Tm^−1 vs log10 (concentration). Borer et al., J. Mol. Biol., 86, 843 (1974).

[2] = system: complementary RNA strand (the sense strand); assay: Thermal melting analysis of 2′-deoxy-2′-fluoro modified oligonucleotides (hybridization thermodynamics); assay type: binding
c-raf mRNA = assay: Northern blot analysis of inhibition of c-raf mRNA expression in T24 cells; assay type: cell-based, human
Text: Chimeric oligonucleotides having SEQ ID NO:7 were designed using the Genbank c-raf sequence HUMRAFR (Genbank listing x03484), synthesized and tested for inhibition of c-raf mRNA expression in T24 bladder carcinoma cells using a Northern blot assay. These chimeric oligonucleotides have central “gap” regions of 6, 8 or 10 deoxynucleotides flanked by two regions of 2′-O-methyl modified nucleotides, and are shown in Table 10. Backbones were uniformly phosphorothioate. […] These oligonucleotides are preferred.
The human urinary bladder cancer cell line T24 was obtained from the American Type Culture Collection (Rockville, Md.). Cells were grown in McCoy's 5A medium with L-glutamine (GIBCO-BRL, Gaithersburg, Md.), supplemented with 10% heat-inactivated fetal calf serum and 50 U/ml each of penicillin and streptomycin. Cells were seeded on 100 mm plates. When they reached 70% confluency, they were treated with oligonucleotide. Plates were washed with 10 ml prewarmed PBS and 5 ml of OptiMEM reduced-serum medium containing 2.5 μl DOTMA. Oligonucleotide with lipofectin was then added to the desired concentration. After 4 hours of treatment, the medium was replaced with McCoy's medium. Cells were harvested 24 to 72 hours after oligonucleotide treatment and RNA was isolated using a standard CsCl purification method. [Kingston in Current Protocols in Molecular Biology, F. M. Ausubel, R. Brent, R. E. Kingston, D. D. Moore, J. A. Smith, J. G. Seidman and K. Strahl, Eds., John Wiley and Sons, New York.] Total RNA was isolated by centrifugation of cell lysates over a CsCl cushion. RNA samples were electrophoresed through 1.2% agarose-formaldehyde gels and transferred to hybridization membranes by capillary diffusion over a 12-14 hour period. The RNA was cross-linked to the membrane by exposure to UV light in a Stratalinker (Stratagene, La Jolla, Calif.) and hybridized to random-primed ^32P-labeled c-raf cDNA probe (obtained from ATCC) or G3PDH probe as a control. RNA was quantitated using a Phosphorimager (Molecular Dynamics, Sunnyvale, Calif.).

PKC-α mRNA = assay: Northern blot analysis of PKC-α mRNA levels; assay type: cell-based, human; details: result in words
Procedure: Oligonucleotides having SEQ ID NO:4 were synthesized as uniformly phosphorothioate chimeric oligonucleotides having a centered deoxy gap of varying lengths flanked by 2′-O-methylated regions. These oligonucleotides (500 nM concentration) were tested for effects on PKC-A mRNA levels by Northern blot analysis.
Additional phosphorothioate oligonucleotides targeted to the human PKC-α 3′ untranslated region were designed and synthesized.

[3] = system: ras-luciferase (codon-12 point mutation of activated H-ras); assay: ras-luciferase reporter gene system; assay type: cell-based, human; details: cells expressing the mutant form of ras-luciferase; dose response, FIGS. 1 and 2
[4] = system: T24 cancer cell proliferation; assay: Antisense oligonucleotide inhibition of proliferation of cancer cells; assay type: cell-based, human
Procedure: Antisense oligonucleotide inhibition of proliferation of cancer cells: Three 17mer oligonucleotides having the same sequence (SEQ ID NO:1), complementary to the codon 12 region of activated ras, were tested for effects on T24 cancer cell proliferation as described in Example 28. 3985 is a full phosphorothioate oligonucleotide having a 7-deoxy gap flanked by 2′-O-methyl nucleotides, and 4690 is a full phosphorothioate oligonucleotide having a 7-deoxy gap flanked by 2′-F nucleotides (C^FC^FA^F C^FA^FCd CdGdAd CdGdGd C^FG^FC^F C^FC^F, SEQ ID NO:1, nucleotides identified with an “^F” contain a […] substituent group and the remainder of the nucleotides identified with a “d” are 2′-deoxy-erythro-pentofuranosyl nucleotides).
Cells were cultured and treated with oligonucleotide essentially as described in Example 27. Cells were seeded on 60 mm plates and were treated with oligonucleotide in the presence of DOTMA when they reached 70% confluency. Time course experiment: On day 1, cells were treated with a single dose of oligonucleotide at a final concentration of 100 nM. The growth medium was changed once on day 3 and cells were counted every day for 5 days, using a counting chamber. Dose-response experiment: Various concentrations of oligonucleotide (10, 25, 50, 100 or 250 nM) were added to the cells and cells were harvested and counted 3 days later. Oligonucleotides 2570, 3985 and 4690 were tested for effects on T24 cancer cell proliferation.

ras mRNA = assay: Northern blot analysis of ras expression in T24 cells; assay type: cell-based, human
Procedure: The human urinary bladder cancer cell line T24 was obtained from the American Type Culture Collection (Rockville Md.). Cells were grown in McCoy's 5A medium with L-glutamine (GIBCO-BRL, Gaithersburg, Md.), supplemented with 10% heat-inactivated fetal calf serum and 50 U/ml each of penicillin and streptomycin. Cells were seeded on 100 mm plates. When they reached 70% confluency, they were treated with oligonucleotide. Plates were washed with 10 ml prewarmed PBS and 5 ml of OptiMEM (GIBCO) reduced-serum medium containing 2.5 μl DOTMA. Oligonucleotide was then added to the desired concentration. After 4 hours of treatment, the medium was replaced with McCoy's medium. Cells were harvested 48 hours after oligonucleotide treatment and RNA was isolated using a standard CsCl purification method. [Kingston in Current Protocols in Molecular Biology, F. M. Ausubel, R. Brent, R. E. Kingston, D. D. Moore, J. A. Smith, J. G. Seidman and K. Strahl, Eds., John Wiley and Sons, New York.] The human epithelioid carcinoma cell line HeLa 229 was obtained from the American Type Culture Collection (Bethesda, Md.). HeLa cells were maintained as monolayers on 6-well plates in Dulbecco's Modified Eagle's medium (DMEM) supplemented with 10% fetal bovine serum and 100 U/ml penicillin. Treatment with oligonucleotide and isolation of RNA were essentially as described above for T24 cells.
Northern hybridization: 10 μg of each RNA was electrophoresed on a 1.2% agarose/formaldehyde gel and transferred overnight to GeneBind 45 nylon membrane (Pharmacia LKB, Piscataway, N.J.) using standard methods. [Kingston in Current Protocols in Molecular Biology, F. M. Ausubel, R. Brent, R. E. Kingston, D. D. Moore, J. A. Smith, J. G. Seidman and K. Strahl, Eds., John Wiley and Sons, New York.] RNA was UV-crosslinked to the membrane. Double-stranded ^32P-labeled probes were synthesized using the Prime a Gene labeling kit (Promega, Madison Wis.). The ras probe was a SalI-NheI fragment of a cDNA clone of the activated (mutant) H-ras mRNA having a GGC-to-GTC mutation at codon-12. The control probe was G3PDH. Blots were prehybridized for 15 minutes at 68° C. with the QuickHyb hybridization solution (Stratagene, La Jolla, Calif.). The heat-denatured radioactive probe (2.5×10^6 counts/2 ml hybridization solution) mixed with 100 μl of 10 mg/ml salmon sperm DNA was added and the membrane was hybridized for 1 hour at 68° C. The blots were washed twice for 15 minutes at room temperature in 2×SSC/0.1% SDS and once for 30 minutes at 60° C. with 0.1×SSC/0.1% SDS. Blots were autoradiographed and the intensity of signal was quantitated using an ImageQuant PhosphorImager (Molecular Dynamics, Sunnyvale, Calif.). Northern blots were first hybridized with the ras probe, then stripped by boiling for 15 minutes in 0.1×SSC/0.1% SDS and rehybridized with the control G3PDH probe to check for correct sample loading.

[5] = duplex with complementary RNA, first Tm column

O-Pentyl: 17-mer CCACACCGACGGCGCCC (SEQ ID NO: 1), 2′-O-pentyl nucleotides flanking a 7-base deoxy gap (sugars from the 5' end [OPent]5 d7 [OPent]5, backbone and methylation of C not given here)
Tm [1]: 68.5 °C

CUC GUA CCU UCC GGU CC: SEQ ID NO: 28; adenosine, thymidine and cytidine nucleotides modified to contain 2′-deoxy-2′-fluoro substituents (CUCGUACCUUCCGGUCC; 2'-fluoro on A, U/T, C, G sugar and linkages not given here, further chemistry not given here)
Tm [2, 5]: 81.6 °C

TCCCGCCTGTGACATGCATT (all phosphorothioate, sugars by position and methylation of C not given here; further chemistry not fully specified) [ISIS 6717, chimeric 2′-O-methyl P═S c-raf oligonucleotide, 8-deoxy gap]
inhibition of c-raf mRNA expression (c-raf mRNA): greater than 90%

ps(CGA CTA TGC AAG TAC)
Tm ([2]; change in Tm relative to the unmodified oligonucleotide): −11.2 °C | Tm [2, 5]: 33.9 °C

CTCGCCCGCTCCTCCTCCCC (all phosphorothioate, sugars by position and methylation of C not given here; further chemistry not fully specified) [ISIS 7849, chimeric 2′-O-methyl P═S c-raf oligonucleotide, 5′UTR]
inhibition of c-raf mRNA expression (c-raf mRNA): > 70%

TTCTCCTCCTCCCCTGGCAG (sugars from the 5' end m12 d8, all phosphorothioate, T or U not given here) [ISIS 7854, chimeric 2′-O-methyl P═S c-raf oligonucleotide, 3′UTR]
inhibition of c-raf mRNA expression (c-raf mRNA): > 70%

O-Propyl: 17-mer CCACACCGACGGCGCCC (SEQ ID NO: 1), 2′-O-propyl nucleotides flanking a 7-base deoxy gap (sugars from the 5' end [OPr]5 d7 [OPr]5, backbone and methylation of C not given here)
Tm [1]: 70.4 °C

AoAoAoAoCoGsTsCsAsGsCsCsAsTsGoGoToCoCoC (AAAACGTCAGCCATGGTCCC; linkages o5 s9 o5 (s phosphorothioate, o phosphodiester), sugars by position and methylation of C not given here; further chemistry not fully specified) [Oligonucleotide 7273]
effect on PKC-α mRNA levels (PKC-α mRNA): more active than their 2′-β-methyl counterparts

CTC GTA CCT TCC GGT CC: unmodified phosphodiester, SEQ ID NO: 22 (CTCGTACCTTCCGGTCC; unmodified DNA)
Tm [2, 5]: 61.6 °C

TTCTCGCCCGCTCCTCCTCC (all phosphorothioate, sugars by position and methylation of C not given here; further chemistry not fully specified) [ISIS 7856, chimeric 2′-O-methyl P═S c-raf oligonucleotide, 5′UTR]
inhibition of c-raf mRNA expression (c-raf mRNA): > 70%

C^MC^MA^M C^MA^MCd CdGdAd CdGdGd C^MG^MC^M C^MC^M [Oligonucleotide 3985]
Tm [1]: 74.7 °C | inhibition of ras-luciferase activity [3]: greatest inhibition | IC50 ([4]; T24 cell proliferation, dose-response): 61 nM | inhibited cell proliferation ([4]; T24 cells): 82% | inhibition of ras expression / decrease of ras mRNA (ras mRNA): 95% and 81%

ps(CGA CUA UGC AAG UAC)
Tm [2, 5]: 60.9 °C

AsAoAoAoCoGsTsCsAsGsCsCsAsTsGoGoToCoCsC (AAAACGTCAGCCATGGTCCC; linkages s1 o4 s9 o4 s1 (s phosphorothioate, o phosphodiester), sugars by position and methylation of C not given here; further chemistry not fully specified) [Oligonucleotide 7294]
effect on PKC-α mRNA levels (PKC-α mRNA; listed as 7294): more active than their 2′-β-methyl counterparts

AsAsAsAsCsGsTsCsAsGsCsCsAsTsGsGsTsCsCsC (AAAACGTCAGCCATGGTCCC; listed as DNA, chemistry not fully specified) [Oligonucleotide 3522, reference compound]
effect on PKC-α mRNA levels (PKC-α mRNA): reduction of PKC-α mRNA
